Laboratory results taken from PubChem BioAssay (NCI).
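Dose response: 5 concentrations. Exposure: 48 h. Format: 96-well plates. Endpoint: linear interpolation; highest concentration if not reached. TGI marks complete inhibition of growth.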

Tests used:
Experiment in all cases: NCI-60 cell line screen, 48 h
HCT-15 colon = tested on: HCT-15 colon
HOP-62 NSCLC = tested on: HOP-62 NSCLC
NCI-H23 lung = tested on: NCI-H23 lung
PC-3 prostate = tested on: PC-3 prostate
SF-268 CNS = tested on: SF-268 CNS
SK-OV-3 ovarian = tested on: SK-OV-3 ovarian
SW-620 colon = tested on: SW-620 colon
HCC-2998 colon = tested on: HCC-2998 colon
K-562 leukemia = tested on: K-562 leukemia
SNB-75 CNS = tested on: SNB-75 CNS

SMILES | TGI (HCT-15 colon) | TGI (HOP-62 NSCLC) | TGI (NCI-H23 lung) | TGI (PC-3 prostate) | TGI (SF-268 CNS) | TGI (SK-OV-3 ovarian) | TGI (SW-620 colon) | TGI (HCC-2998 colon) | TGI (K-562 leukemia) | TGI (SNB-75 CNS)
O=[N+]([O-])c1cccc([N+](=O)[O-])c1S(=O)(=O)c1ccccc1 | 4.1 µM | 35.1 µM | 50.7 µM | 32.3 µM | 29 µM | 31.2 µM | 5.9 µM | – | – | –
O=c1[nH]c(=O)n(C2OC(COP(=O)(O)OP(=O)(O)O)C(O)C2O)cc1F (stereo not given) | > 50 µM | 29.6 µM | > 50 µM | – | > 50 µM | 47.8 µM | > 50 µM | > 50 µM | > 50 µM | > 50 µM
COc1cccc(NC(=O)CSc2nnc(-c3ccc(N=Cc4ccc(Cl)cc4)cc3)o2)c1 | 33.8 µM | > 100 µM | 41.1 µM | – | 46.3 µM | > 100 µM | 37.9 µM | – | > 100 µM | 66.3 µM
COC(=O)C(/C(=N/NC(=O)c1ccncc1)C(=O)Nc1ccccc1OC)c1nc2ccc(Cl)cc2[nH]c1=O (stereo not given) | > 100 µM | > 100 µM | > 100 µM | > 100 µM | > 100 µM | > 100 µM | > 100 µM | – | > 100 µM | > 100 µM
NC(Cc1cc(I)c(O)c(I)c1)C(=O)O (stereo not given) | > 362 µM | > 500 µM | > 356 µM | – | > 500 µM | > 500 µM | > 500 µM | > 500 µM | > 500 µM | > 330 µM
CC[C@]12C=CCN3CCC4(c5cc(N=Nc6ccccc6)c(OC)cc5N(C)[C@H]4[C@@](O)(C(=O)OC)[C@@H]1OC(C)=O)[C@@H]32 (stereo not given in full) | 34.4 µM | 35.2 µM | 30.5 µM | 29.8 µM | 33 µM | – | 58.7 µM | 36.3 µM | 64.2 µM | –
O=S1(=O)NNC(=NCc2ccc(Cl)cc2)c2ccccc21 | > 100 µM | – | – | – | > 100 µM | – | > 100 µM | > 100 µM | > 100 µM | –
NC(N)=N/N=C/c1c(-c2ccc([N+](=O)[O-])cc2)nc2sccn12 | 23.7 µM | – | 3.46 µM | 2.93 µM | – | 3.35 µM | – | 2.73 µM | 2.84 µM | 3.27 µM
CN(CCc1ccc(Cl)c(Cl)c1)[C@H]1CCCC[C@H]1N1CCCC1 | > 100 µM | > 100 µM | > 100 µM | > 100 µM | > 100 µM | > 100 µM | > 100 µM | > 100 µM | > 100 µM | –
COc1ccc(/C=C/c2cc(O)cc(OC)c2)cc1 | 14.4 µM | > 100 µM | > 100 µM | > 100 µM | > 100 µM | > 100 µM | > 100 µM | – | > 100 µM | > 100 µM
